From patent publication US4727080A, “1-substituted derivatives of 6-fluoro-7-(pyrrol-1-yl)-1,4-dihydro-4-oxoquinoline-3-carboxylic acid, their preparation and their application as drugs” (Provesan S.A., priority 1984, dated 1988)
≈ marks a conversion by molar mass, not a printed value.

Key:
Escherichia coli R-1513 = assay: "In vitro" MIC, Escherichia coli R-1513; assay type: cell-based; conditions: R1513; Escherichia coli R-1513; dextrose agar, 37° C., 20 hours; read-out: "In vitro" MIC
Protocol: (§1) Antimicrobial pharmacological activity (G. L. Daquet and Y. A. Chabbect, Techniques en bacteriologie (Techniques in bacteriology), vol. 3, Flammarion Medecine-Sciences, Paris, 1972, and W. B. Hugo and A. D. Rusell, Pharmaceutical Microbiology, Blackwell Scientific Publications, London (1977).
(§2) A streak culture of each of the microorganisms is formed in tubes of antibiotics agar no. 1 and incubated for 20 hours at 37° C. A culture loop is then taken and a culture is formed in a tryptone-soya broth and incubated for 20 hours at 37° C. The resulting culture is diluted to 1/4 with Ringer's physiological solution to give a standardized suspension of 10^5 ufc/ml for each organism.
(§3) Starting from a solution of 1000 μg/ml in 0.1N NaOH, each product is diluted successively in dextrose agar (melted beforehand and kept at 50° C.) to give the following concentrations: 64-32-16-8-4-2-1-0.5-0.25-0.125 μg of derivative/ml of medium.
(§4) After this, each concentration of each product is divided up into Petri dishes of 10 cm diameter at a rate of 10 ml of medium per dish and using as many dishes as there are microorganisms to be tested.
(§5) Once the medium has cooled, the dishes are treated with the inoculations at a rate of 0.4 ml of inoculation per dish. They are spread out with a Drigalski loop and the supernatant is collected. The inoculated dishes are incubated at 37° C. for 20 hours.

[1] = test system: Serratia marcescens ATTC 13880; assay: "In vitro" MIC, Serratia marcescens; assay type: cell-based; conditions: ATTC13880; Serratia marcescens ATTC 13880; dextrose agar, 37° C., 20 hours; read-out: "In vitro" MIC
Protocol: as §1
Serratia marcescens ATTC 13880
as §2, §3, §4, §5

[2] = test system: Salmonella typhimurium AMES 98; assay: "In vitro" MIC, Salmonella typhimurium AMES 98; assay type: cell-based; conditions: Salmonella enterica; Salmonella typhimurium AMES 98; dextrose agar, 37° C., 20 hours; read-out: "In vitro" MIC
Protocol: as §1
Salmonella typhimurium AMES 98
as §2, §3, §4, §5

[3] = test system: Enterobacter aerogenes ATCC 15038; assay: "In vitro" MIC, Enterobacter aerogenes; assay type: cell-based; conditions: Klebsiella aerogenes, ATCC15038; Enterobacter aerogenes ATCC 15038; dextrose agar, 37° C., 20 hours; read-out: "In vitro" MIC
Protocol: as §1
Enterobacter aerogenes ATCC 15038
as §2, §3, §4, §5

Shigella flexnerii = assay: "In vitro" MIC, Shigella flexnerii; assay type: cell-based; conditions: 20 h, read-out: "In vitro" MIC
Protocol: as §1, §2, §3, §4, §5

[4] = test system: Klebsiella pneumoniae ATCC 10031; assay: "In vitro" MIC, Klebsiella pneumoniae; assay type: cell-based; conditions: ATCC10031; Klebsiella pneumoniae ATCC 10031; dextrose agar, 37° C., 20 hours; read-out: "In vitro" MIC
Protocol: as §1
Klebsiella pneumoniae ATCC 10031
as §2, §3, §4, §5

[5] = test system: Staphylococcus aureus ATCC 5488/23; assay: "In vitro" MIC, Staphylococcus aureus ATCC 5488/23; assay type: cell-based; conditions: ATCC5488; Staphylococcus aureus ATCC 5488/23; dextrose agar, 37° C., 20 hours; read-out: "In vitro" MIC
Protocol: as §1
Staphylococcus aureus ATCC 5488/23
as §2, §3, §4, §5

Gram-positive cocci = assay: "In vitro" antimicrobial activity compared with nalidixic acid, Gram-positive cocci; assay type: cell-based
Protocol: as §1, §2, §3, §4, §5

Sarcina lutea ATCC 9341 = assay: "In vitro" MIC, Sarcina lutea; assay type: cell-based; conditions: Micrococcus luteus, ATCC9341; Sarcina lutea ATCC 9341; dextrose agar, 37° C., 20 hours; read-out: "In vitro" MIC
Protocol: as §1, §2, §3, §4, §5

[6] = test system: Staphylococcus aureus ATCC 25178; assay: "In vitro" MIC, Staphylococcus aureus ATCC 25178; assay type: cell-based; conditions: ATCC25178; Staphylococcus aureus ATCC 25178; dextrose agar, 37° C., 20 hours; read-out: "In vitro" MIC
Protocol: as §1
Staphylococcus aureus ATCC 25178
as §2, §3, §4, §5

[7] = test system: Streptococcus faecalis ATCC 10541; assay: "In vitro" MIC, Streptococcus faecalis; assay type: cell-based; conditions: Enterococcus faecalis, ATCC10541; Streptococcus faecalis ATCC 10541; dextrose agar, 37° C., 20 hours; read-out: "In vitro" MIC
Protocol: as §1
Streptococcus faecalis ATCC 10541
as §2, §3, §4, §5

[8] = test system: Pseudomonas aeruginosa 25115; assay: "In vitro" MIC, Pseudomonas aeruginosa 25115; assay type: cell-based; conditions: Pseudomonas aeruginosa 25115; dextrose agar, 37° C., 20 hours; read-out: "In vitro" MIC
Protocol: as §1
Pseudomonas aeruginosa 25115
as §2, §3, §4, §5

[9] = test system: Pseudomonas aeruginosa ADSA 47; assay: "In vitro" MIC, Pseudomonas aeruginosa ADSA 47; assay type: cell-based; conditions: ADSA47; Pseudomonas aeruginosa ADSA 47; dextrose agar, 37° C., 20 hours; read-out: "In vitro" MIC
Protocol: as §1
Pseudomonas aeruginosa ADSA 47
as §2, §3, §4, §5

[10] = test system: Escherichia coli ATCC 10536; assay: "In vitro" MIC, Escherichia coli ATCC 10536; assay type: cell-based; conditions: ATCC10536; Escherichia coli ATCC 10536; dextrose agar, 37° C., 20 hours; read-out: "In vitro" MIC
Protocol: as §1
Escherichia coli ATCC 10536
as §2, §3, §4, §5

Acute toxicity to mice = conditions: mouse, in vivo, ip, suspension in 5% gum arabic, mortality over 7 days
Protocol: The experimental animals used to determine this toxicity were albino mice of the C.F.L.P. strain and of both sexes, weighing between 19 and 25 grams. After an 18-hour fasting period with water "ad libitum", the derivatives forming the subject of the present invention are administered intraperitoneally as a suspension in 5% gum arabic. The volume of suspension administered was 0.4 ml/20 grams (20 ml/kg) in all cases, the concentration of the suspension being changed according to the dose administered.
One hour after administration of the derivatives, the animals are given a standard Panlab rat-mouse food. The mortality was observed over a period of 7 days. Differences in mortality between the sexes were not observed with any of the products.

[11] = test system: Bacillus subtilis ATCC 6633; assay: "In vitro" MIC, Bacillus subtilis; assay type: cell-based; conditions: ATCC6633; Bacillus subtilis ATCC 6633; dextrose agar, 37° C., 20 hours; read-out: "In vitro" MIC
Protocol: as §1
Bacillus subtilis ATCC 6633
as §2, §3, §4, §5

Proteus morganii CHSP-16 = assay: "In vitro" MIC, Proteus morganii; assay type: cell-based; conditions: Morganella morganii, CHSP16; Proteus morganii CHSP-16; dextrose agar, 37° C., 20 hours; read-out: "In vitro" MIC
Protocol: as §1, §2, §3, §4, §5

[12] = test system: Enterobacter cloacae CHSP-20; assay: "In vitro" MIC, Enterobacter cloacae; assay type: cell-based; conditions: CHSP20; Enterobacter cloacae CHSP-20; dextrose agar, 37° C., 20 hours; read-out: "In vitro" MIC
Protocol: as §1
Enterobacter cloacae CHSP-20
as §2, §3, §4, §5

[13] = test system: Citrobacter freundii ATCC 11606; assay: "In vitro" MIC, Citrobacter freundii; assay type: cell-based; conditions: ATCC11606; Citrobacter freundii ATCC 11606; dextrose agar, 37° C., 20 hours; read-out: "In vitro" MIC
Protocol: as §1
Citrobacter freundii ATCC 11606
as §2, §3, §4, §5

[14] = test system: Proteus mirabilis ATCC 4675; assay: "In vitro" MIC, Proteus mirabilis; assay type: cell-based; conditions: ATCC4675; Proteus mirabilis ATCC 4675; dextrose agar, 37° C., 20 hours; read-out: "In vitro" MIC
Protocol: as §1
Proteus mirabilis ATCC 4675
as §2, §3, §4, §5

[15] = test system: Salmonella typhimurium AMES 100; assay: "In vitro" MIC, Salmonella typhimurium AMES 100; assay type: cell-based; conditions: Salmonella enterica; Salmonella typhimurium AMES 100; dextrose agar, 37° C., 20 hours; read-out: "In vitro" MIC
Protocol: as §1
Salmonella typhimurium AMES 100
as §2, §3, §4, §5

[16] = test system: Enterobacteriaceae (Pseudomonas aeruginosa); assay: "In vitro" antimicrobial activity compared with nalidixic acid, Enterobacteriaceae (Pseudomonas aeruginosa); assay type: cell-based
Protocol: as §1, §2, §3, §4, §5

[17] = test system: Micrococcus flavus ATCC 10240; assay: "In vitro" MIC, Micrococcus flavus; assay type: cell-based; conditions: ATCC10240; Micrococcus flavus ATCC 10240; dextrose agar, 37° C., 20 hours; read-out: "In vitro" MIC
Protocol: as §1
Micrococcus flavus ATTC 10240
as §2, §3, §4, §5

SMILES	MIC (Escherichia coli R-1513) [µg/mL]	MIC [1] [µg/mL]	MIC [2] [µg/mL]	MIC [3] [µg/mL]	MIC (Shigella flexnerii) [µg/mL]	MIC [4] [µg/mL]	MIC [5] [µg/mL]	"in vitro" activity compared with nalidixic acid (Gram-positive cocci)	MIC (Sarcina lutea ATCC 9341) [µg/mL]	MIC [6] [µg/mL]	MIC [7] [µg/mL]	MIC [8] [µg/mL]	MIC [9] [µg/mL]	MIC [10] [µg/mL]	LD50 at 168 h (Acute toxicity to mice) [mg/kg]	MIC [11] [µg/mL]	MIC (Proteus morganii CHSP-16) [µg/mL]	MIC [12] [µg/mL]	MIC [13] [µg/mL]	MIC [14] [µg/mL]	also measured
CNn1cc(C(=O)O)c(=O)c2cc(F)c(-n3cccc3)cc21 [Example 7, 6-fluoro-7-(pyrrol-1-yl)-1-methylamino-4-oxo-1,4-dihydroquinoline-3-carboxylic acid]	0.5 (≈ 1.66 µM)	1 (≈ 3.32 µM)	0.125 (≈ 0.415 µM)	1 (≈ 3.32 µM)	1 (≈ 3.32 µM)	0.125 (≈ 0.415 µM)	0.25 (≈ 0.83 µM)	greater "in vitro" activity than nalidixic acid	4 (≈ 13.3 µM)	0.25 (≈ 0.83 µM)	4 (≈ 13.3 µM)	8 (≈ 26.6 µM)	16 (≈ 53.1 µM)	≤ 0.062	> 1600	≤ 0.062	1 (≈ 3.32 µM)	1 (≈ 3.32 µM)	1 (≈ 3.32 µM)	2 (≈ 6.64 µM)	MIC [15]: 0.25 µg/mL (≈ 0.83 µM); "in vitro" activity compared with nalidixic acid [16]: greater "in vitro" activity than nalidixic acid; MIC [17]: 4 µg/mL (≈ 13.3 µM)
O=C(O)c1cn(CCF)c2cc(-n3cccc3)c(F)cc2c1=O [Example 6, 6-fluoro-7-(pyrrol-1-yl)-1-fluoroethyl-4-oxo-1,4-dihydroquinoline-3-carboxylate acid]	0.5 (≈ 1.57 µM)	1 (≈ 3.14 µM)	≤ 0.031	1 (≈ 3.14 µM)	1 (≈ 3.14 µM)	0.062 (≈ 0.195 µM)	0.062 (≈ 0.195 µM)	greater "in vitro" activity than nalidixic acid	2 (≈ 6.28 µM)	0.062 (≈ 0.195 µM)	0.5 (≈ 1.57 µM)	4 (≈ 12.6 µM)	16 (≈ 50.3 µM)	≤ 0.031	> 1600	≤ 0.031	0.5 (≈ 1.57 µM)	0.5 (≈ 1.57 µM)	1 (≈ 3.14 µM)	1 (≈ 3.14 µM)	MIC [15]: 0.25 µg/mL (≈ 0.785 µM); "in vitro" activity compared with nalidixic acid [16]: greater "in vitro" activity than nalidixic acid; MIC [17]: 1 µg/mL (≈ 3.14 µM)
